{"source": "patent US20010005721A1", "about": "“Heel crack healing composition and method therefor” (priority 1998, published 2001)", "key": {"[1]": {"system": "cracks upon the heel and foot", "test": "Trial Study Series A: active ingredient studies 1-4"}}, "data": [{"smiles": "C[C@]12CCC(=O)C=C1CC[C@@H]1[C@@H]2[C@@H](O)C[C@@]2(C)[C@H]1CC[C@]2(O)C(=O)CO", "note": "[Hydrocortisone]", "values": [{"measurement": "effectiveness", "setting": "[1]; hydrocortisone concentration about 0.5% or more", "value": "most effective concentrations"}, {"measurement": "healing speed", "setting": "[1]; hydrocortisone concentration greater than about 0.75%", "value": "promote a faster healing"}, {"measurement": "effectiveness", "setting": "[1]; hydrocortisone concentration less than about 0.25%", "value": "little worthwhile effect"}, {"measurement": "effectiveness (healing time)", "setting": "[1]; hydrocortisone concentration less than about 0.5%", "value": "generally less effective, having a lengthened healing time"}]}, {"smiles": "O=C(O)c1ccccc1O", "note": "[Salicylic acid]", "values": [{"measurement": "effectiveness", "setting": "[1]; salicylic acid concentration about 4%", "value": "most effective concentration"}, {"measurement": "effectiveness", "setting": "[1]; salicylic acid concentration about 5%", "value": "also an effective concentration"}, {"measurement": "effectiveness / excessive exfoliation", "setting": "[1]; salicylic acid concentration about 8-9%", "value": "not as effective due to excessive exfoliation"}, {"measurement": "effectiveness (exfoliation, healing time)", "setting": "[1]; salicylic acid concentration less than about 4% in the composition", "value": "generally less effective, promoting less exfoliation and having a lengthened healing time"}, {"measurement": "defoliation versus therapeutic benefit", "setting": "heel cracks; about 10% by weight salicylic acid", "value": "effects of rapid defoliation begin to exceed the therapeutic benefits"}, {"measurement": "effect of raising the salicylic acid component", "setting": "heel cracks; salicylic acid over about 6% or 7% by weight", "value": "negative results characterized not only by a rapid defoliation of the affected areas"}]}, {"smiles": "[O]=[Zn]", "note": "[Zinc oxide]", "values": [{"measurement": "healing of cracks upon the heel and foot", "setting": "[1]; zinc oxide concentration about 3%", "value": "optimal concentration"}, {"measurement": "healing properties of the composition", "setting": "[1]; zinc oxide concentration above about 5%", "value": "does not appear to affect the healing properties"}, {"measurement": "healing", "setting": "[1]; zinc oxide concentration less than about 1%", "value": "some slight decrease in the healing"}]}]}
